Reference: article PMC7894522, “Structure Based Design of Bicyclic Peptide Inhibitors of RbAp48” (Angewandte Chemie (International Ed. in English), 2020)
Starred links: 1 amine or outer side, 2 acyl side, 3 side chain; linkers in the order of their positions; H or OH if unused. Positions of bridges follow the written chain, without caps; N, C: chain ends. Residues, ends and D or L forms follow the SMILES beside them. TBMB = c1c(C[*:1])cc(C[*:3])cc1C[*:2]; pXylylene = c1cc(C[*:2])ccc1C[*:1]

Experiments:
U2OS cells = experiment: Morphological cell painting assay; format: cell-based; settings: Supplemental table 6; cell painting profile similarity to compound 49, U2OS cells
Description: Encouraged by the promising results from the pulldown experiment, and in order to get insight into bioactivity and possible mode of action, we analyzed peptide 33 in a morphological cell painting assay. The cell painting assay is a target agnostic assay which determines a cells morphological profile after treatment with a compound of interest and compares it to the profiles of a set of reference compounds. ^[22] By identifying reference compounds with a similar profile a hypothesis of the compounds mode of action can be generated based on their annotated targets. ^[23] U2OS cells were treated with our compound and 579 parameters were analyzed. […] We therefore synthesized a variant modified with an N‐terminal TAT sequence to enhance its permeability (compound 49, see Table 1 and Supplemental Figure 4). ^[24] […] Applying compound 49 to the cell painting assay led to an induction of 5.9 % and the corresponding profile was compared to the set of 3000 reference compounds. […] To validate this hypothesis, we exposed U2OS cells to compound 49 and evaluated the levels of p53 by Western blot. […] The exact mechanism by which the compounds elevate levels of p53 requires further investigation. However, it has previously been shown that the NuRD complex, of which RbAp48 is a core component, is able to deacetylate p53 and thereby modulate its stability. ^[26] The effect is mediated by the MTA family of proteins from which the compounds described here are derived. […]
The described assay follows closely the method described by Bray et al. Initially, 5 µl U2OS medium were added to each well of a 384 -well plate (PerkinElmer CellCarrier -384 Ultra). Subsequently, U2OS cell were seeded with a density of 1600 cells per well in 20 µl medium. The plate was incubated for 10 min at the ambient temperatu re, followed by an a dditional 4 h incubation (37 °C, 5 % CO2). Compound treatment was performed with the Echo 520 acoustic dispenser (Labcyte) at final concentrations of 10 µM, 3 µM or 1 µM. Incubation with compound was performed for 20 h (37 °C, 5 % CO2). Subsequently, mitoc hondria were stained with Mito Tracker Deep Red (Thermo Fisher Scientific, Cat. No. M22426). The Mito Tracker Deep Red stock solution (1 mM) was diluted to a final concentration of 100 nM in prewarmed medium. The medium was removed fr om the plate leaving 1 0 µl residual volume and 25 µl of the Mito Tracker solution were added to each well. 22 The plate was incubated for 30 min in darkness (37 °C, 5 % CO2). To fix the cells 7 µl of 18.5 % formaldehyde in PBS were added, resulting in a fi nal formaldehyde conce ntration of 3.7 %. Subsequently, the plate was incubated for another 20 min in darkness (RT) and washed three times with 70 µl of PBS. (Biotek Washer Elx405). Cells were permeabilized by addition of 25 µl 0.1 % Triton X -100 to each well, followed by 15 min incubation (RT) in darkness. The cells were washed three times with PBS leaving a final volume of 10 µl. To each well 25 µl of a staining solution were added, which contains 1 % BSA, 5 µl/mL Phalloidin (Thermo Fisher Scientific, A123 81), 25 µg/ml Concanav alin A (Thermo Fisher Scientific, Cat. […]
conjugate (Thermo Fisher Scientific, Cat. No. W11262) and […] SYTO 14 solution (Thermo Fisher Scientific, Cat. No. S7576). The plate is incubated for 30 min (RT) in darkness and washed three times with 70 µl PBS. After the final washing step the PBS was not aspirated. The plates were sealed and centrifuged for 1 min at 500 rpm.
The plates were prepare d in triplicates with shifted layouts to reduce plate effects and imaged using a Micro XL High-Content Screening System (Molecular Devices) in 5 channels (DAPI: Ex350 -400/ Em410- […]
The generated images were processed with the CellProfiler package (https://cellprofiler.org/, version 3.0.0) on a computing cluster of the Max Planck Society to extract 1716 cell features (parameters) per microscope site. The data was then further aggregated as medians per well (9 sites -> 1 well), then […]

[1] = Peptide stability in MDA-MB-231 whole cell lysate; format: in vitro ADME; settings: human, 37°C, HPLC, duplicate; for half-life at 600 µM: MDA-MB-231 whole cell lysate (freeze-thaw), 5 mg/ml protein in PBS, peptide 600 µM, read-out: t 1/2 (half-life); for remaining at 5 min, 600 µM: T 5 min; for remaining at 5 min, 600 µM / remaining at 0.25 h, 600 µM / remaining at 1 h, 600 µM: MDA-MB-231 whole cell lysate 5 mg/ml protein, read-out: % left; for remaining at 0.25 h, 600 µM: T 15 min; for remaining at 1 h, 600 µM: T 60 min
Method: To investigate whether the cyclization strategy influences the stability of the peptides we incubated 3, 8 and 33 in MDA‐MB‐231 cell lysate. […]
(§1) Fluorescence polarization assay […]
Isothermal Titration Calorimetry […]
Peptide stability was tested in whole cell lysate prepared from MDA-MB-231 cells using the freeze-thaw method. Peptides were dissolved in lysate (normalized to 5mg/ml protein using PBS) at 600 µM and incubated at 37°C. Samples were taken at different time points and mixed with an equal amount of MeOH containing 0.05 mg/ml ethylparaben as an i nternal standard. The samples were mixed and kept on ice for 15 minutes before centrifugation at 14000 rpm at 4 °C for 10 min. The supernatant was carefully removed and analyzed by HPLC. Peptide peaks were integrated and surface areas compared […]
Measurements were performed in duplicate.

RbAp48 [2] = molecular target: T1, RbAp48 (Homo sapiens, UniProt Q09028); experiment: Competitive fluorescence polarization (FP) assay using complex of peptide 1 and RbAp48; format: binding; parameters: Full length RbAp48 was cloned; His tag followed by 3C cleavage site (N, cleaved yes); made in house; host or cells: Sf9 insect cells; settings: for IC50: Table 1, competitive FP, tracer peptide 1 1 nM, RbAp48 15 nM, 20 mM Tris-HCl, 150 mM NaCl, 0.01% Tween-20, pH 7.5, 30 min room temperature, lower limit set by 15 nM protein, read-out: IC50
Summary of the method: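 Sf9-expressed full-length RbAp48 (tag cleaved), 15 nM, displaced from 1 nM fluorescent peptide tracer in 20 mM Tris-HCl pH 7.5, 150 mM NaCl, 0.01% Tween-20. Read by FP (ex 485/em 535 nm) after 30 min at room temperature.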

RbAp48 [3] = molecular target: T1, RbAp48; experiment: Isothermal titration calorimetry (direct and competitive); format: binding; parameters: Full length RbAp48 was cloned; His tag followed by 3C cleavage site (N, cleaved yes); made in house; host or cells: Sf9 insect cells
Method: The weak ligand interferes with binding of the strong ligand allowing the use of higher concentrations and therefore stronger signal. The actual affinity and thermodynamic parameters can then be calculated from the measured values.[ ^20 , ^21 ] The long linear peptide 2, monocyclic peptide 8, and bicyclic peptide 33 were analysed using this method and the results are reported in Table 2 (See Figure 4 A and Supplemental Figure 13–16). […] An effect which could not clearly be observed by the FP assay as it's lower limits were reached.
Protein expression and purification
RbAp48 was expressed and purified by the Dortmund Protein Facility. Full length RbAp48 was cloned into a pOPIN vector ligating it to an N-terminal His tag followed by a 3C cleavage site. The protein was expressed from Sf9 cells for 48 h. Cells were harvested and lysed and the protein was purified by loading onto a HisTrap FF crude 5 ml column followed by on-column cleavage using Precission protease. The cleaved protein was then further purified using a HiLoad 26/60 Superdex 200 column.
as §1
Isothermal Titration Calorimetry
Isothermal titration calorimetry measurements w ere performed using a Microcal ITC-200 device. The buffer for all measurements consisted of 20 mM Tris, 150 mM NaCl, pH 7.5 and all measurements were performed at 25°C in duplicate except for 8. RbAp48 was dialyzed overnight using a 10 kDa MWCO Slide-A-lizer dialysis membrane and peptide samples were dissolved in the dialysis buffer. Direct measurements of 40 were perfomed by titrating the peptide ( 800 µM) into the cell containing RbAp48 (40 µM) using 2 µl injection after an initial injection of 0.5 µl. […]
by competitive ITC where the protein is premixed with a weak ligand ( 40).[1] Competitive measurements were performed by titrating 2, 8 or 33 (300 µM) into the cell containing RbAp48 (30 µM) and 40 (416 µM). Other conditions were the same as for the direct measurement described above.
Ki was calculated according using the following formula: […]

[4] = competitive ITC with weak ligand 40

T1 sequence (Q09028 whole entry): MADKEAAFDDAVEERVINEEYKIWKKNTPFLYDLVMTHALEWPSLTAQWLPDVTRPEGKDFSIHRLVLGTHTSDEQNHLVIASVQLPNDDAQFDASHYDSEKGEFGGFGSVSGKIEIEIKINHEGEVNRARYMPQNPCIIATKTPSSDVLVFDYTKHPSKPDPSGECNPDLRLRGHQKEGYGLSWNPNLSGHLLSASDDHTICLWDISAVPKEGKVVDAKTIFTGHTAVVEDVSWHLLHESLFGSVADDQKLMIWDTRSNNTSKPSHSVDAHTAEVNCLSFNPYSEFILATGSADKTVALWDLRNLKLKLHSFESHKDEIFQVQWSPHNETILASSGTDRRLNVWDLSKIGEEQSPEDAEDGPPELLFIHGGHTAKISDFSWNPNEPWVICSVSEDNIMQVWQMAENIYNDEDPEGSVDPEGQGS

## NS(=O)(=O)OC[C@@H]1C[C@@H](n2ccc3c(N[C@H]4CCc5ccccc54)ncnc32)C[C@@H]1O [Pevonedistat]
U2OS cells
  Biosimilarity (%): 63.6%

## CCN(CC)CCNC(=O)c1c(C)[nH]c(/C=C2\C(=O)Nc3ccc(F)cc32)c1C [Sunitinib]
U2OS cells
  Biosimilarity (%): 63.5%

## PFI-5
U2OS cells
  Biosimilarity (%): 65.1%

## CC[C@H](C)[C@H](NC(=O)[C@@H]1CCCN1C(=O)[C@H](CCCCN)NC(=O)[C@H](Cc1ccc(O)cc1)NC(=O)[C@@H]1CCCN1C(=O)[C@H](CCCNC(=N)N)NC(=O)[C@H](CCCNC(=N)N)NC(=O)[C@H](C)NC(=O)[C@H](C)NC(=O)[C@H](CCCNC(=N)N)NC(=O)[C@H](CCCCN)NC(=O)[C@@H](NC(=O)[C@H](CCC(=O)O)NC(C)=O)[C@@H](C)O)C(=O)N[C@@H](C)C(N)=O [Peptide 3] (Ac-ETKRAARRPYKPIA-NH2)
[1]
  half-life at 600 µM: 16 min
  remaining at 5 min, 600 µM: 67.5%
  remaining at 0.25 h, 600 µM: 49.2%
  remaining at 1 h, 600 µM: 0%
RbAp48 [2]
  IC50: 2620 ± 786 nM

## COc1cc2nc(N3CCCN(C)CC3)nc(NC3CCN(Cc4ccccc4)CC3)c2cc1OC [BIX01294]
U2OS cells
  Biosimilarity (%): 64.9%

## CC(=O)N[C@H]1CSCc2cc3cc(c2)CSC[C@@H](C(=O)N[C@@H](C)C(N)=O)NC(=O)[C@@H]2CCCN2C(=O)[C@H](CCCCN)NC(=O)[C@H](Cc2ccc(O)cc2)NC(=O)[C@@H]2CCCN2C(=O)[C@H](CCCNC(=N)N)NC(=O)[C@H](C)NC(=O)[C@H](C)NC(=O)[C@H](CSC3)NC(=O)[C@H](CCCNC(=N)N)NC(=O)[C@H](CCCCN)NC(=O)[C@H]([C@@H](C)O)NC1=O [Peptide 40] (Ac-CTKRCAARPYKPCA-NH2; linker 1-5-13 via TBMB)
RbAp48 [3]; weak binding ligand, direct ITC
  Kd: 15800 nM
RbAp48 [2]
  IC50: 4320 ± 974 nM
RbAp48 [2]; competitive FP assay
  FP activity in words: decreased several orders of magnitude

## CC(C)(C)C[C@@H]1N[C@@H](C(=O)N[C@H]2CC[C@H](O)CC2)[C@H](c2cccc(Cl)c2F)[C@]12C(=O)Nc1cc(Cl)ccc12 [MI-773]
U2OS cells
  Biosimilarity (%): 73.0%

## CC(=O)N1CCN(c2ccc(OCC3COC(Cn4ccnc4)(c4ccc(Cl)cc4Cl)O3)cc2)CC1 (centres unmarked) [Ketoconazole]
U2OS cells
  Biosimilarity (%): 61.9%

## CC[C@H](C)[C@H](NC(=O)[C@@H]1CCCN1C(=O)[C@H](CCCCN)NC(=O)[C@H](Cc1ccc(O)cc1)NC(=O)[C@@H]1CCCN1C(=O)[C@H](CCCNC(=N)N)NC(=O)[C@H](CCCNC(=N)N)NC(=O)[C@H](C)NC(=O)[C@H](C)NC(=O)[C@H](CCCNC(=N)N)NC(=O)[C@H](CCCCN)NC(=O)[C@@H](NC(=O)[C@H](CCC(=O)O)NC(=O)[C@H](CO)NC(=O)[C@H](CO)NC(=O)[C@H](CO)NC(=O)[C@H](CC(C)C)NC(=O)[C@H](CC(C)C)NC(=O)[C@H](CCCCN)NC(C)=O)[C@@H](C)O)C(=O)N[C@@H](C)C(=O)N[C@@H](CC(C)C)C(=O)N[C@@H](CCCNC(=N)N)C(=O)N[C@@H](CCC(N)=O)C(=O)N[C@@H](CO)C(=O)N[C@@H](CCC(N)=O)C(=O)N[C@@H](C)C(N)=O [Peptide 2] (Ac-KLLSSSETKRAARRPYKPIALRQSQA-NH2)
RbAp48 [3]; [4]
  Kd: 5.18 nM
RbAp48 [2]
  IC50: 13.4 ± 3 nM

## CC(=O)N[C@H]1CSCc2ccc(cc2)CSC[C@@H](C(=O)N[C@@H](C)C(N)=O)NC(=O)[C@@H]2CCCN2C(=O)[C@H](CCCCN)NC(=O)[C@H](Cc2ccc(O)cc2)NC(=O)[C@@H]2CCCN2C(=O)[C@H](CCCNC(=N)N)NC(=O)[C@H](CCCNC(=N)N)NC(=O)[C@H](C)NC(=O)[C@H](C)NC(=O)[C@H](CCCNC(=N)N)NC(=O)[C@H](CCCCN)NC(=O)[C@H]([C@@H](C)O)NC1=O [Peptide 8] (Ac-CTKRAARRPYKPCA-NH2; linker 1-13 via pXylylene)
[1]
  half-life at 600 µM: 11.9 min
  remaining at 5 min, 600 µM: 67.8%
  remaining at 0.25 h, 600 µM: 41%
  remaining at 1 h, 600 µM: 0%
RbAp48 [3]; [4]
  K D: did not yield a binding curve
RbAp48 [3]; competitive ITC: 300 μM peptide titrated into 30 μM RbAp48 and 416 μM peptide 40, 20 mM Tris, 150 mM NaCl, pH 7.5, 25°C, duplicate except 8
  K D [nM]: N.B.
RbAp48 [2]
  IC50: 15.1 ± 5.4 nM
